Test results reported in PMC9706565, “Covalently Conjugated NOD2/TLR7 Agonists Are Potent and Versatile Immune Potentiators” (Journal of Medicinal Chemistry, 2022).
Converted amounts (≈) assume the structure as drawn. Like-named read-outs stand apart in the source and are kept apart here.

How the values were obtained:
MEC1 cells = experiment: PBMC cytotoxicity against MEC1 cancer cells; format: cell-based, human; conditions: PBMCs stimulated 18 h, 1 μM; 4 h coincubation, effector:target 40:1
Procedure: (§1) K562 cells are a chronic myelogenous leukemia cell line (Cat. code: CCL-243; ATCC, Manassas, VA)[60] and MEC1 cells are a B-chronic lymphocytic leukemia cell line (Cat. code: ACC 497; DSMZ GmbH, Braunschweig, Germany).[61]
(§2) The PBMC cytotoxicity assays using K562 and MEC1 cells were performed as described previously, with some modifications.[64] PBMCs were seeded (4 × 10^5 cells/well) in duplicate in 96-well U-bottom plates and treated with the compounds (1 nM–1 μM) or vehicle (0.1% DMSO) for 18 h. […] Cells that were positive for both CFSE and Sytox blue were defined as dead K562 and MEC1 cells. The gating strategy is described in Figure S4. PBMCs alone and CFSE-labeled cancer cells alone were also treated with the compounds at the same concentrations and stained with Sytox blue to exclude any direct cytotoxicity of the compounds toward the PBMCs and cancer cells. Statistical significance was determined with one-way ANOVA with subsequent Bonferroni’s multiple comparisons test.

K562 cells = experiment: PBMC cytotoxicity against K562 cancer cells; format: cell-based; conditions: for cytolytic activity of PBMCs against K562 cells: PBMCs stimulated 18 h, 1 μM, 4 h coincubation, effector:target 40:1
Procedure: as §1, §2

RAW-Blue cells = experiment: NF-κB transcriptional activity in RAW-Blue cells with or without NOD2/TLR7 antagonists; format: cell-based, murine; conditions: 1 μM, 18 h; SG84 (5 μM), M5049 (1 μM)
Procedure: After the first two passages, 200 μg/mL Zeocin (Invivogen) was added to the medium every other passage, to maintain the selection pressure.
RAW-Blue cells were seeded (100,000 cells/well) in duplicate in 96-well plates in 200 μL of growth medium (without Normocin and Zeocin) and pretreated with a NOD2 antagonist SG84 (5 μM),[35] TLR7 antagonist M5049 (1 μM),[36] or both for 1 h, before the addition of compounds (1 μM) or the corresponding vehicle (0.1% DMSO). After 18 h of incubation (37 °C, 5% CO2), 10 μL of the induced supernatant was added to 90 μL of QUANTI-Blue solution (Invivogen). After 2 h of incubation (37 °C), SEAP activity was determined spectrophotometrically as absorbance at 630 nm (BioTek Synergy microplate reader; Winooski, VT). Statistical significance was determined with two-way ANOVA with subsequent Dunnett’s multiple comparisons test.

TLR7 = biological target: T1, TLR7 (Homo sapiens, UniProt Q9NYK1); experiment: NF-κB transcriptional activity (SEAP reporter) in HEK-Blue TLR7 cells; format: cell-based; conditions: for EC50: HEK-Blue TLR7 cells, 18 h, eight concentrations 1 nM to 10 μM, NA, not active; for fold improved TLR7 activity over 1: ratio of EC50 values in HEK-Blue TLR7 cells
T1 construct: host or cells: HEK-Blue TLR7 (HEK293-derived)
T1 sequence (Q9NYK1 27-1049): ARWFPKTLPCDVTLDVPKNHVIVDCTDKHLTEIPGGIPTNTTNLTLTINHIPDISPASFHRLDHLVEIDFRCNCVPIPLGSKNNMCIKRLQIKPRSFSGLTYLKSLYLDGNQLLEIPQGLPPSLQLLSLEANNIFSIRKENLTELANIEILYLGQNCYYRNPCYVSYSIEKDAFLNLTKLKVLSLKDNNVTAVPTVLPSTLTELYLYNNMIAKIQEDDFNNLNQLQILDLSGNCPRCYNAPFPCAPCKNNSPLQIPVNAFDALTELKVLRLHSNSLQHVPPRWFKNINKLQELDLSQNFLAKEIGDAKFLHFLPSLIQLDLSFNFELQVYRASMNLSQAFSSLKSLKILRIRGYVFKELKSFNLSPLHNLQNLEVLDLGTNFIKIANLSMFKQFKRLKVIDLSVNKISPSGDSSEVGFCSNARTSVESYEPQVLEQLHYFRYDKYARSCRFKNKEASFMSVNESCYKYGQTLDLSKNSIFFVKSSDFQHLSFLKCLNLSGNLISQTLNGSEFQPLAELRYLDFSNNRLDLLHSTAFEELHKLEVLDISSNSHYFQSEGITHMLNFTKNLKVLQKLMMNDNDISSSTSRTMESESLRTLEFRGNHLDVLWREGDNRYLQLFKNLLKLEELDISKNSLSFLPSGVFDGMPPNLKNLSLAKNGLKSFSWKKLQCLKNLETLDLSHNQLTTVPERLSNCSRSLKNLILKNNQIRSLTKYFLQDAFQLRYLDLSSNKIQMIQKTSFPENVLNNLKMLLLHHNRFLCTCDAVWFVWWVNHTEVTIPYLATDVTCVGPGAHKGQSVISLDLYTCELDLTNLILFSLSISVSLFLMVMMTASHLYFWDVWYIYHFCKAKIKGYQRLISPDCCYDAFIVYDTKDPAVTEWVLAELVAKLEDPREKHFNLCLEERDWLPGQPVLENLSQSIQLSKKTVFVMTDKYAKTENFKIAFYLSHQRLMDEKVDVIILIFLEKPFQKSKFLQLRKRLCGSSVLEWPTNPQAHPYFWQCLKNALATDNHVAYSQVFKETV
From the text: (§3) HEK-Blue NOD1 (Cat. code: hkb-hnod1), NOD2 (Cat. code: hkb-hnod2), and TLR7 (Cat. code: hkb-htlr7) cell lines (Invivogen, San Diego, CA) are derived from HEK293 cells by co-transfection of the hNOD1, hNOD2, or hTLR7 genes, respectively, and a nuclear factor-κB (NF-κB)-inducible secreted embryonic alkaline phosphatase (SEAP) reporter gene. Following activation of the respective receptors, the resulting NF-κB induces the production of SEAP, the levels of which can be quantified colorimetrically. […] All of the subsequent passages were cultured in medium additionally supplemented with 100 μg/mL Zeocin (Invivogen) and 30 μg/mL Blasticidin (Invivogen) for HEK-Blue NOD1 and NOD2 cells, or with 100 μg/mL Zeocin (Invivogen) and 10 μg/mL Blasticidin (Invivogen) for HEK-Blue TLR7 cells.
(§4) After 18 h of incubation (37 °C, 5% CO2), SEAP activity was determined spectrophotometrically as absorbance at 630 nm (BioTek Synergy microplate reader; Winooski, VT). EC50 values were calculated using the Prism software (version 9; GraphPad Software, CA).

[1] = Kinetic solubility measurement; format: physicochemical; conditions: for solubility at 2 h: phosphate-buffered saline, aqueous buffer, kinetic from dmso stock, kinetic, PBS pH 7.4, 2% DMSO, 2 h room temperature
Procedure: The content of DMSO in all solutions was fixed to 2% by adding the respective amounts of DMSO. The column used was Waters Acquity UPLC BEH C18 (1.7 μm, 2.1 × 50 mm^2). […] The column was thermostated at 40 °C.

NOD2 = biological target: T2, NOD2 (Homo sapiens, UniProt Q9HC29); experiment: NF-κB transcriptional activity (SEAP reporter) in HEK-Blue NOD2 cells; format: cell-based; conditions: 18 h; for EC50: eight concentrations 1 nM to 10 μM, NA, not active
T2 construct: host or cells: HEK-Blue NOD2 (HEK293-derived)
From the text: as §3, §4

human PBMCs [2] = experiment: Cytokine release from peripheral blood mononuclear cells; format: cell-based; conditions: 1 μM, 18 h
Procedure: Human PBMCs from healthy and consenting donors were isolated from heparinized blood by density gradient centrifugation using Ficoll-Paque (Pharmacia, Sweden).
Peripheral blood mononuclear cells were seeded (1 × 10^6 cells/mL) in 24-well plates in 500 μL of growth medium and treated with the compounds (1 μM), lipopolysaccharide (LPS; 1 μg/mL), or the corresponding vehicle (0.1% DMSO). Cell-free supernatants were collected after 18 h of incubation (37 °C, 5% CO2) and stored at −80 °C until tested. Cytokine production was determined with BD Cytometric Bead Array human inflammatory cytokines kit (BD Bioscience) on an Attune NxT flow cytometer (Thermo Fisher Scientific, Waltham, MA). Standard curves were generated using recombinant cytokines contained in the kit. The data were analyzed using the FlowJo (Tree Star, Inc., Ashland, OR) and Prism (GraphPad, San Diego, CA) software. Statistical significance was determined with one-way ANOVA with subsequent Bonferroni’s multiple comparisons test.

NIH/OlaHsd mice = experiment: Mouse immunization with OVA, OVA-specific serum antibodies (ELISA); format: in vivo; conditions: s.c. days 0, 21, 42; OVA 10 μg + compound 50 μg; 7 days after last dose
Procedure: NIH/OlaHsd inbred mice were raised at the Institute of Immunology, Croatia. All mice used were females, from 2.0 to 2.5 months old. During the experimental period, the mice were housed in the Animal Facility of the Institute of Immunology, with food and water provided ad libitum.
Sex-matched NIH/OlaHsd mice (five per group) were immunized subcutaneously into the tail base with OVA (10 μg; Serva, Germany) alone or plus the compounds (50 μg) on days 0, 21, and 42. The injection volume in all of the experimental groups was 0.1 mL per mouse. On the seventh day after the second booster dose, the mice were anesthetized with i.p. application of ketamine/xylazine (25 mg/kg each) prior to blood collection from the axillary plexus. Individual sera from each animal were decomplemented at 56 °C for 35 min and then stored at −20 °C until tested.
The levels of the OVA-specific total IgG, IgG1, and IgG2a in mice sera were determined by ELISA. Briefly, high-binding ELISA plates (Costar) were coated with a 15 μg/mL solution of OVA (Serva, Germany) in carbonate buffer (pH 9.6). Nonspecific antibody binding was blocked by 0.5% w/v bovine serum albumin in PBS-T (0.05% [v/v] Tween 20 in PBS) for 2 h at 37 °C. After washing, five serial dilutions of mice sera and standard preparations were added in duplicates. Plates were incubated overnight at room temperature, washed, and analyzed for OVA-specific IgG levels by incubation with HRP-conjugated goat anti-mouse IgG (2 h at 37 °C; Bio-Rad Laboratories), and then after washing, with 0.6 mg/mL o-phenylenediaminedihydrochloride solution in citrate-phosphate buffer, pH 5.0, with 0.5 μL 30% H2O2/mL for 30 min at room temperature in the dark. The enzymatic reaction was stopped with 12.5% H2SO4, and absorbance at 492 nm was measured using a microplate reader (Thermo Fisher Scientific, Waltham, MA).
For the determination of OVA-specific IgG1 and IgG2a, the plates were incubated with biotin-conjugated rat anti-mouse IgG1 or IgG2a (2 h at 37 °C; PharMingen, Becton Dickinson) and subsequently with streptavidin-peroxidase (Pharmingen) for 2 h at 37 °C. After washing, the substrate solution was added and incubated for 30 min at room temperature in the dark, as described above. The enzymatic reaction was stopped with 12.5% H2SO4 and absorbance at 492 nm was measured using a microplate reader. The relative quantities of antibodies were determined by parallel line assays using appropriate standard preparations of anti-OVA IgG, anti-OVA IgG1, and anti-OVA IgG2a antibodies with voluntarily assigned 20.000 AU/mL, 400.000 AU/mL, and 5000 AU/mL, respectively.[65] Statistical significance was determined with one-way ANOVA with subsequent Dunnett’s multiple comparisons test.

human PBMCs [3] = format: cell-based
[4] = tested 1 nM-1 μM, cancer cell line not specified (K562 or MEC1, Figure S5)

T2 sequence (Q9HC29 whole entry): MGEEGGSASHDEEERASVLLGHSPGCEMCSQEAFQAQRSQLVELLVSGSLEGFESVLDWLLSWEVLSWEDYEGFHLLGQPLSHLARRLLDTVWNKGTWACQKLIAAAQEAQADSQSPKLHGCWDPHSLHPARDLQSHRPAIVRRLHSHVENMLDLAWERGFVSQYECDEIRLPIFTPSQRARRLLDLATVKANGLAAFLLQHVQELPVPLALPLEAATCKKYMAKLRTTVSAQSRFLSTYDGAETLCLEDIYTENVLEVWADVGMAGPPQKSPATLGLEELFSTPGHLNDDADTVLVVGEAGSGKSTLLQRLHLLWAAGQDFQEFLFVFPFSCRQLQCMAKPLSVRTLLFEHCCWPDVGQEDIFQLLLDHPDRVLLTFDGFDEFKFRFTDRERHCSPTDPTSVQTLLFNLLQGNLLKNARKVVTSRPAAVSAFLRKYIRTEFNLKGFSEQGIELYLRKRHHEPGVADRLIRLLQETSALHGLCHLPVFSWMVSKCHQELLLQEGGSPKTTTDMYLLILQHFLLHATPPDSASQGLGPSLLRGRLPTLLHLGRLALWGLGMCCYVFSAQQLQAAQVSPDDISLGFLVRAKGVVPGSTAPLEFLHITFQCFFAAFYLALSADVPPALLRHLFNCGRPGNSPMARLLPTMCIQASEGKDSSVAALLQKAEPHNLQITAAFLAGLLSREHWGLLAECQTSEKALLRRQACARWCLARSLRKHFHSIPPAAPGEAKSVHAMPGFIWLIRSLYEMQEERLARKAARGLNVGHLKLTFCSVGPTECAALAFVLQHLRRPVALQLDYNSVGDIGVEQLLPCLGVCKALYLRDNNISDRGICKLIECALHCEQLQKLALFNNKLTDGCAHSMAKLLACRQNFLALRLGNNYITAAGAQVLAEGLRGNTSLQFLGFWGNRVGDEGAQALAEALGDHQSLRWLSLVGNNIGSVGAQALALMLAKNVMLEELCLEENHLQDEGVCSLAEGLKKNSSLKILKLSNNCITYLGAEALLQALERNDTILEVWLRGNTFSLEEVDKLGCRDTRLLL

SMILES: CCCCOc1nc(N)c2nc(O)n(Cc3ccc(C(=O)NCCCCCC(=O)Oc4ccc(/C=C/C(=O)NCC(=O)N[C@H](C(=O)N[C@H](CCC(=O)OCC)C(=O)OCC)C(C)C)cc4OC)cc3)c2n1 [Compound 3, Diethyl ((E)-3-(4-((6-(4-((6-amino-2-butoxy-8-hydroxy-9H-purin-9-yl)methyl)benzamido)hexanoyl)-oxy)-3-methoxyphenyl)acryloyl)glycyl-L-valyl-D-glutamate]
- cytolytic activity of PBMCs against MEC1 cells (MEC1 cells): significantly enhanced
- cytolytic activity of PBMCs against K562 cells (K562 cells): significantly enhanced
- concentration at which significant PBMC cytotoxicity was observed (K562 cells; [4]): 1000 nM
- RAW-Blue activity in the presence of NOD2 or TLR7 antagonist (RAW-Blue cells): decrease in activity after antagonizing TLR7 was more prominent
- EC50 (TLR7): 161 nM
- fold improved TLR7 activity over 1 (TLR7): approximately 2 fold
- solubility at 2 h [1]: 27.4 µM (≈ 27.1 µg/mL)
- EC50 (NOD2): 114 nM

SMILES: CCCCOc1nc(N)c2nc(O)n(Cc3ccc(C(=O)NCCOCCNC(=O)CC[C@@H](NC(=O)[C@@H](NC(=O)CNC(=O)/C=C/c4ccc(O)c(OC)c4)C(C)C)C(=O)OCC)cc3)c2n1 [Compound 4, Ethyl N5-(2-(2-(4-((6-amino-2-butoxy-8-hydroxy-9H-purin-9-yl)methyl)benzamido)ethoxy)ethyl)-N2-((E)-3-(4-hydroxy-3-methoxyphenyl)acryloyl)glycyl-L-valyl-D-glutaminate]
- cytolytic activity of PBMCs against MEC1 cells (MEC1 cells): significantly enhanced
- IL12p70 secretion (human PBMCs [2]): induced secretion of IL12p70
- production of IL-1β, IL-6, IL-8, IL-10 and TNF (human PBMCs [2]): considerably stronger effects compared to 3
- cytolytic activity of PBMCs against K562 cells (K562 cells): significantly enhanced
- lowest concentration with significant effect on PBMC cytotoxicity (K562 cells; [4]): 10 nM
- IgG2a/IgG1 ratio (Th1/Th2 polarization) (NIH/OlaHsd mice): trend toward increased IgG2a/IgG1 ratios
- OVA-specific IgG1 titers (NIH/OlaHsd mice): increased the titers
- OVA-specific IgG2a titers (NIH/OlaHsd mice): increased the titers
- serum OVA-specific IgG titers (NIH/OlaHsd mice): significantly higher
- Genes in KEGG pathway, 4-enriched (human PBMCs [3]; Chemokine signaling pathway (total 182)): 40
- Genes in KEGG pathway, 4-enriched (human PBMCs [3]; Hematopoietic cell lineage (total 97)): 31
- Genes in KEGG pathway, 4-enriched (human PBMCs [3]; Influenza A (total 182)): 33
- Genes in KEGG pathway, 4-enriched (human PBMCs [3]; NF-kappa B signaling pathway (total 107)): 25
- transcription of IFN-γ and both IL-12 subunits (IL12A, IL12B) (human PBMCs [3]; PBMCs, 1 μM, 18 h): strongly upregulated
- transcription of IL-17A, IL-17F, IL-22 and IL-26 (human PBMCs [3]; PBMCs, 1 μM, 18 h): induced transcription
- transcription of Th2-associated genes (IL-4, IL-5, IL-13, STAT6, GATA3) (human PBMCs [3]; PBMCs, 1 μM, 18 h): remained unchanged
- number of significantly downregulated genes (human PBMCs [3]; PBMCs, three donors, 1 μM, 18 h, FDR <0.05, fold-change <0.5): 877
- number of significantly upregulated genes (human PBMCs [3]; PBMCs, three donors, 1 μM, 18 h, […]): 962
- Genes in KEGG pathway, 4-enriched (human PBMCs [3]; Pathways in cancer (total 395)): 56
- Genes in KEGG pathway, 4-enriched (human PBMCs [3]; Phagosome (total 168)): 33
- Genes in KEGG pathway, 4-enriched (human PBMCs [3]; Rheumatoid arthritis (total 99)): 25
- Genes in KEGG pathway, 4-enriched (human PBMCs [3]; TNF signaling pathway (total 115)): 28
- Genes in KEGG pathway, 4-enriched (human PBMCs [3]; Transcriptional misregulation in cancer (total 204)): 37
- EC50 (TLR7): 36 nM
- fold improved TLR7 activity over 1 (TLR7): 10 fold
- fold higher solubility of 4 than 3 ([1]; kinetic solubility, Table S2): approximately 2 fold
- solubility at 2 h [1]: 58.2 µM (≈ 54.3 µg/mL)
- NOD2 activation at the highest concentration tested (NOD2; 10 μM): activated NOD2 only to a minor extent
- EC50 (NOD2): > 10000 nM

SMILES: CCCCOc1nc(N)c2nc(O)n(Cc3ccc(C(=O)O)cc3)c2n1 [Compound 1, 4-((6-Amino-2-butoxy-8-hydroxy-9H-purin-9-yl)methyl)benzoic acid, reference compound]
- EC50 (TLR7): 398 nM

SMILES: CCOC(=O)CC[C@@H](NC(=O)[C@@H](NC(=O)CNC(=O)/C=C/c1ccc(O)c(OC)c1)C(C)C)C(=O)OCC [Compound 2, Diethyl ((E)-3-(4-hydroxy-3-methoxyphenyl)acryloyl)glycyl-L-valyl-D-glutamate]
- IL-8 production (human PBMCs [2]): significant increase
